Assays:
[1] = molecular target: T1, p53 Y220C mutant protein (amino acid residues 94-293) (Homo sapiens, UniProt P04637, Y220C); assay: Surface Plasmon Resonance (SPR) assay, Kd_kinetic; format: binding; conditions: SPR, kinetic KD, p53 Y220C; read-out: SPR P53 Y220C KD kinetic
T1 construct: p53 Y220C mutant protein (amino acid residues 94-293)
Method in brief: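 Temperature held at 16 or 20 °C during Biacore 8K runs. Buffer: 50 mM Tris, pH 7.5, 100 mM NaCl, 1 mM DTT, 0.01% Brij35, 0.05% Tween-20, 1% DMSO.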

[2] = molecular target: T1, p53 Y220C mutant protein (amino acid residues 94-293); assay: Thermal Shift Assay (TSA), dTM; format: binding; conditions: thermal shift; for ΔTm at 100 µM: 100 uM compound, read-out: TSA P53 Y220C dTM (100 uM)
Method in brief: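 5 μM p53 Y220C (residues 94-293) incubated 3 h at 20 °C with 10 μM or 100 μM compound in 20 mM HEPES pH 7.4, 100 mM NaCl, 0.01% Pluronic F-127, 1% DMSO plus Sypro Orange. Melt from 30 to 50 °C at 0.03 °C/s; TM from Boltzmann two-state fit.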

p53 Y220C = p53 Y220C (Homo sapiens, UniProt P04637, Y220C); assay: Luciferase Reporter Assay (Luc), p53 response element, NClH1299 cells with inducible p53 Y220C; format: cell-based; conditions: luciferase reporter, NClH1299 inducible p53 Y220C, 6 hour; for Emax: 10 uM tool compound as positive control; for AC50: read-out: Luc P53 Y220C AC50
Method in brief: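 H1299 cells induced with 0.5 ug/mL doxycycline for 24 hours, then exposed to compound for 6 hours. p53 response-element luciferase read by One-Glo luminescence after 5 min shaking at room temperature.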

NUGC3 p53 Y220C = assay: Cell Proliferation Assay (CellTiter-Glo, CTG), NUGC3 p53 Y220C; format: cell-based; conditions: Homo sapiens, NUGC-3, 120 h, CellTiter-Glo, NUGC3 p53 Y220C, 5 days
Method in brief: (§1)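 NClH1299 lines stably transduced with Tet-inducible p53 Y220C or R273H, plus NUGC3, were treated with compound for 5 days at 250-500 cells/well. IC50 derived from CellTiter-Glo luminescent signal after 10 min room-temperature incubation.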

H1299 p53 Y220C = assay: Cell Proliferation Assay (CellTiter-Glo, CTG), H1299 p53 Y220C (NClH1299-inducible p53 Y220C); format: cell-based; conditions: Homo sapiens, NCI-H1299, 120 h, CellTiter-Glo, H1299 p53 Y220C, 5 days
Method in brief: as §1

H1299 p53 R273H = assay: Cell Proliferation Assay (CellTiter-Glo, CTG), H1299 p53 R273H (NClH1299-inducible p53 R273H); format: cell-based; conditions: Homo sapiens, NCI-H1299, 120 h, CellTiter-Glo, H1299 p53 R273H, 5 days
Method in brief: as §1

Kd [1] [nM] | ΔTm at 100 µM [2] [°C] | Emax (p53 Y220C) [%] | AC50 (p53 Y220C) [nM] | IC50 (H1299 p53 Y220C) [nM] | IC50 (H1299 p53 R273H) [nM] | ΔTm at 10 µM ([2]; 10 uM compound, read-out: TSA P53 Y220C dTM (10 uM)) [°C] | SMILES | IC50 (NUGC3 p53 Y220C) [nM]
< 10 | ≥ 10 | 70 to 80 | 750 to 1500 | 750 to 1500 | ≥ 10000 |  | CNC(=O)c1ccc(NCC#Cc2nc3c(N[C@@H]4CCN(C)C[C@@H]4F)cccn3c2CC(F)(F)F)c(OCCOC)c1 [Example 62, 4-{[3-(8-{[(3S,4R)-3-fluoro-1-methylpiperidin-4-yl]amino}-3-(2,2,2-trifluoroethyl)imidazo[1,2-a]pyridin-2-yl)prop-2-yn-1-yl]amino}-3-(2-methoxyethoxy)-N-methylbenzamide] | 750 to 1500
10 to 100 | ≥ 10 | 70 to 80 | 1500 to 3000 | 750 to 1500 | ≥ 10000 |  | COc1cc(S(N)(=O)=O)ccc1NCC#Cc1nc2c(N[C@@H]3CCN(C)C[C@@H]3F)cccn2c1CC(F)(F)F [Example 63, 4-{[3-(8-{[(3S,4R)-3-fluoro-1-methylpiperidin-4-yl]amino}-3-(2,2,2-trifluoroethyl)imidazo[1,2-a]pyridin-2-yl)prop-2-yn-1-yl]amino}-3-methoxybenzenesulfonamide] | 750 to 1500
< 10 | ≥ 10 | 70 to 80 | 750 to 1500 | < 750 | 8000 to 10000 | ≥ 10 | CNS(=O)(=O)c1ccc(NCC#Cc2nc3c(N[C@@H]4CCN(C)C[C@@H]4F)cccn3c2CC(F)(F)F)c(OC)c1 [Example 64, 4-{[3-(8-{[(3S,4R)-3-fluoro-1-methylpiperidin-4-yl]amino}-3-(2,2,2-trifluoroethyl)imidazo[1,2-a]pyridin-2-yl)prop-2-yn-1-yl]amino}-3-methoxy-N-methylbenzenesulfonamide] | < 750
10 to 100 | ≥ 10 | 70 to 80 | < 750 | 750 to 1500 | 5000 to 8000 |  | COc1cc(S(=O)(=O)N(C)C)ccc1NCC#Cc1nc2c(N[C@@H]3CCN(C)C[C@@H]3F)cccn2c1CC(F)(F)F [Example 65, 4-{[3-(8-{[(3S,4R)-3-fluoro-1-methylpiperidin-4-yl]amino}-3-(2,2,2-trifluoroethyl)imidazo[1,2-a]pyridin-2-yl)prop-2-yn-1-yl]amino}-3-methoxy-N,N-dimethylbenzenesulfonamide] | 750 to 1500
< 10 | ≥ 10 | 70 to 80 | < 750 | < 750 | 5000 to 8000 |  | CCS(=O)(=O)c1ccc(NCC#Cc2nc3c(N[C@@H]4CCN(C)C[C@@H]4F)cccn3c2CC(F)(F)F)c(OC)c1 [Example 66, (3S,4R)—N-[2-(3-{[4-(ethanesulfonyl)-2-methoxyphenyl]amino}prop-1-yn-1-yl)-3-(2,2,2-trifluoroethyl)imidazo[1,2-a]pyridin-8-yl]-3-fluoro-1-methylpiperidin-4-amine] | < 750
< 10 | ≥ 10 | 70 to 80 | < 750 | < 750 | 5000 to 8000 |  | COc1cc(S(=O)(=O)C2CC2)ccc1NCC#Cc1nc2c(N[C@@H]3CCN(C)C[C@@H]3F)cccn2c1CC(F)(F)F [Example 67, (3S,4R)—N-[2-(3-{[4-(cyclopropanesulfonyl)-2-methoxyphenyl]amino}prop-1-yn-1-yl)-3-(2,2,2-trifluoroethyl)imidazo[1,2-a]pyridin-8-yl]-3-fluoro-1-methylpiperidin-4-amine] | < 750
10 to 100 | 5 to 10 | 70 to 80 | 1500 to 3000 | 1500 to 3000 | ≥ 10000 |  | CN1CC[C@@H](Nc2cccn3c(CC(F)(F)F)c(C#CCNc4ccc(S(C)(=O)=O)cc4F)nc23)[C@@H](F)C1 [Example 68, (3S,4R)-3-fluoro-N-(2-{3-[(2-fluoro-4-methanesulfonylphenyl)amino]prop-1-yn-1-yl}-3-(2,2,2-trifluoroethyl)imidazo [1,2-a]pyridin-8-yl)-1-methylpiperidin-4-amine] | 1500 to 3000
100 to 1000 | 5 to 10 | < 70 | > 3000 | > 3000 | ≥ 10000 |  | CN1CC[C@@H](Nc2cccn3c(CC(F)(F)F)c(C#CC(C)(C)O)nc23)[C@@H](F)C1 [Example 69, 4-(8-{[(3S,4R)-3-fluoro-1-methylpiperidin-4-yl]amino}-3-(2,2,2-trifluoroethyl)imidazo[1,2-a]pyridin-2-yl)-2-methylbut-3-yn-2-ol] | > 3000
10 to 100 | 5 to 10 | < 70 | > 3000 | > 3000 | ≥ 10000 |  | C[C@@H](O)C#Cc1nc2c(N[C@@H]3CCN(C)C[C@@H]3F)cccn2c1CC(F)(F)F [Example 70, (2R)-4-(8-{[(3S,4R)-3-fluoro-1-methylpiperidin-4-yl]amino}-3-(2,2,2-trifluoroethyl)imidazo[1,2-a]pyridin-2-yl)but-3-yn-2-ol] | > 3000
100 to 1000 | 5 to 10 | < 70 | > 3000 | > 3000 | ≥ 10000 |  | C[C@H](O)C#Cc1nc2c(N[C@@H]3CCN(C)C[C@@H]3F)cccn2c1CC(F)(F)F [Example 71, (2S)-4-(8-{[(3S,4R)-3-fluoro-1-methylpiperidin-4-yl]amino}-3-(2,2,2-trifluoroethyl)imidazo[1,2-a]pyridin-2-yl)but-3-yn-2-ol] | > 3000
> 1000 | 1 to 5 | < 70 | > 3000 | 1500 to 3000 | < 5000 |  | CN1CC[C@@H](Nc2cccn3c(CC(F)(F)F)c(C#C[C@@H](O)c4ccccc4)nc23)[C@@H](F)C1 [Example 72, (1S)-3-(8-{[(3S,4R)-3-fluoro-1-methylpiperidin-4-yl]amino}-3-(2,2,2-trifluoroethyl)imidazo[1,2-a]pyridin-2-yl)-1-phenylprop-2-yn-1-ol] | 750 to 1500
100 to 1000 | 5 to 10 | < 70 | > 3000 | 1500 to 3000 | < 5000 |  | CN1CC[C@@H](Nc2cccn3c(CC(F)(F)F)c(C#C[C@H](O)c4ccccc4)nc23)[C@@H](F)C1 [Example 73, (1R)-3-(8-{[(3S,4R)-3-fluoro-1-methylpiperidin-4-yl]amino}-3-(2,2,2-trifluoroethyl)imidazo[1,2-a]pyridin-2-yl)-1-phenylprop-2-yn-1-ol] | 1500 to 3000
100 to 1000 | 5 to 10 | < 70 | > 3000 | > 3000 | ≥ 10000 |  | CN1CC[C@@H](Nc2cccn3c(CC(F)(F)F)c(C#CCCN)nc23)[C@@H](F)C1 [Example 74, (3S,4R)—N-[2-(4-aminobut-1-yn-1-yl)-3-(2,2,2-trifluoroethyl)imidazo[1,2-a]pyridin-8-yl]-3-fluoro-1-methylpiperidin-4-amine] | > 3000
< 10 | 5 to 10 | 70 to 80 | 1500 to 3000 | 750 to 1500 | ≥ 10000 |  | CN1CC[C@@H](Nc2cccn3c(CC(F)(F)F)c(C#CCNc4ccc(S(C)(=O)=O)cc4)nc23)[C@@H](F)C1 [Example 76, (3S,4R)-3-fluoro-N-(2-{3-[(4-methanesulfonylphenyl)amino]prop-1-yn-1-yl}-3-(2,2,2-trifluoroethyl)imidazo[1,2-a]pyridin-8-yl)-1-methylpiperidin-4-amine] | 750 to 1500
< 10 | ≥ 10 | 70 to 80 | < 750 | < 750 | 5000 to 8000 |  | COc1cc(S(=O)(=O)C(C)C)ccc1NCC#Cc1nc2c(N[C@@H]3CCN(C)C[C@@H]3F)cccn2c1CC(F)(F)F [Example 77, (3S,4R)-3-fluoro-N-[2-(3-{[2-methoxy-4-(propane-2-sulfonyl)phenyl]amino}prop-1-yn-1-yl)-3-(2,2,2-trifluoroethyl)imidazo[1,2-a]pyridin-8-yl]-1-methylpiperidin-4-amine] | < 750

— US20260374766A1, “METHODS FOR TREATING CANCER” (Antares Therapeutics, Inc., priority 2022, published 2026)
